*: point of attachment. AMC = Cc1cc(=O)oc2cc(N*)ccc12; Boc = CC(C)(C)OC(=O)*; OBn = c1ccc(CO*)cc1
Assays:
Assay type in all cases: biochemical
[1] = biological target: T1, signal-FLAG-ARS-SerPDO culture supernatant (SEQ ID NO:2 237th to 464th) (Homo sapiens, UniProt Q7Z410); assay: Enzymatic cleavage of MCA-labeled synthetic peptides by signal-FLAG-ARS-SerPDO culture supernatant; settings: substrate 100 μM in TBS pH 7.5, 37° C.; never obtained with blank vector supernatant
T1 construct: made in house; host or cells: HEK293-EBNA
T1 sequence (Q7Z410 203-430): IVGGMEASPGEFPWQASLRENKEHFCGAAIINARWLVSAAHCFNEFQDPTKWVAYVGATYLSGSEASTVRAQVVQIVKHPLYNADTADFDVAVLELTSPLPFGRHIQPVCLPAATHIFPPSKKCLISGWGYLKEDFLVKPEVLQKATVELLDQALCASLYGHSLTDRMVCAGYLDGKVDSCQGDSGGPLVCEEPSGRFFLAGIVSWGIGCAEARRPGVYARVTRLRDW
Description: (§1) The expression plasmids prepared in Examples 3 to 5 were introduced into HEK293-EBNA cell (Invitrogen) using a transfection reagent (FuGENE™6 transfection reagent; Roche) according to the instruction attached thereto. After the introduction of the plasmids, the culture medium was replaced with a serum-free culture medium within 12 to 16 hours and further incubated for another 48 to 60 hours. The culture supernatant was collected and resulting each liquid culture was centrifuged (3000 rpm, 10 minutes) with a centrifuge (Type 8800; Kubota) to obtain culture supernatants. After removing the culture supernatants, the remaining cells were washed with phosphate buffer (PBS; 10 mM sodium phosphate, pH 7.5) and then recovered by scraping from the culture plate by pipetting with phosphate buffer, and centrifuged with a centrifuge (Type 8800; Kubota) at 3000 rpm for 10 minutes. The resulting precipitate was suspended in phosphate buffer, which was defined as the cell fraction. The culture supernatants obtained by the introduction of pCEP-ARSF-FLAG, pCEP-signal-FLAG-ARS-extracellular and pCEP-signal-FLAG-ARS-SerPD are referred to as ARS-FLAG culture supernatant, signal-FLAG-ARS-extracellular culture supernatant, signal-FLAG-ARS-SerPD culture supernatant and signal-FLAG-ARS-SerPDO culture supernatant, respectively.
(§2) The method for detecting enzymatic cleavage activity using a synthetic peptide labeled with MCA (4-methyl-coumaryl-7-amide) in the C terminus was according to the method reported in an academic paper (Yasuoka, S. et al., Am. J. Respir. Cell Mol Biol., Vol. 16, 300-308, 1997), unless otherwise described. […] Subsequently, the fluorescence of AMC (7-amino-4-methyl-coumarin) released from the synthetic peptide by enzymatic cleavage was measured at a wavelength of 460 nm for measurement, using an excitation wavelength of 390 nm with a fluorescent plate reader (Fluostar, SLT).

[2] = biological target: T2, signal-FLAG-ARS-extracellular culture supernatant (SEQ ID NO:2 51st to 531st) (Homo sapiens, UniProt Q7Z410, INS90FVSSFQKTELEASCVGCSVLNYRDGNSSVLVHFQ); assay: Enzymatic cleavage of MCA-labeled synthetic peptides by signal-FLAG-ARS-extracellular culture supernatant; settings: substrate 100 μM in TBS pH 7.5, 37° C.; never obtained with blank vector supernatant
T2 construct: made in house; host or cells: HEK293-EBNA
T2 sequence (Q7Z410 with tags, fused parts or gaps): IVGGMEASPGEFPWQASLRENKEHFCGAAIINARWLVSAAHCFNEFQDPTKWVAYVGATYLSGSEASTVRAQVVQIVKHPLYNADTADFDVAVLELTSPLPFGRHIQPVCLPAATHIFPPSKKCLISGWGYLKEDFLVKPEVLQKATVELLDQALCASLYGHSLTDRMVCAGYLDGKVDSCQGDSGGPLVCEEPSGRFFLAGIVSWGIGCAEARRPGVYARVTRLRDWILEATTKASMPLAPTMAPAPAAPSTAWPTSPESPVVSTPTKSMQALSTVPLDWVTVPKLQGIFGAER
T2 sequence (Q7Z410 with tags, fused parts or gaps INS90FVSSFQKTELEASCVGCSVLNYRDGNSSVLVHFQ): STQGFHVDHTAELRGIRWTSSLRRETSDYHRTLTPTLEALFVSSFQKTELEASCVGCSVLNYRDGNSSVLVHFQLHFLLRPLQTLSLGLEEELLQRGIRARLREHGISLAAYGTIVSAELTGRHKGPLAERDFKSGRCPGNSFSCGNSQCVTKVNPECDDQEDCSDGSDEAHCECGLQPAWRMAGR
Description: as §1, §2

[3] = biological target: T3, enzyme solution treated with trypsin beads (purified signal-FLAG-ARS-extracellular protein) (Homo sapiens, UniProt Q7Z410, INS90FVSSFQKTELEASCVGCSVLNYRDGNSSVLVHFQ); assay: Substrate cleavage activity of purified protein solution treated with trypsin beads; settings: substrate 400 μM, ammonium hydrogen carbonate buffer, 37° C. for one hour
T3 construct: FLAG (N); made in house; host or cells: HEK293-EBNA
T3 sequence (Q7Z410 with tags, fused parts or gaps): T2 sequence (Q7Z410 with tags, fused parts or gaps)
T3 sequence (Q7Z410 with tags, fused parts or gaps INS90FVSSFQKTELEASCVGCSVLNYRDGNSSVLVHFQ): T2 sequence (Q7Z410 with tags, fused parts or gaps INS90FVSSFQKTELEASCVGCSVLNYRDGNSSVLVHFQ)
Description: By the same method as in Example 9, an enzyme solution treated with trypsin beads was obtained, using the purified protein solution. Then, the substrate cleavage activity of the enzyme solution was measured by the same method as in Example 8. Specifically, synthetic peptide substrates were diluted in ammonium hydrogen carbonate buffer to become a final concentration of 400 μM in a 96-well plate. After the enzyme solution described above was mixed into the resulting diluted substrates, the mixture were incubated at 37° C. for one hour. Subsequently, the fluorescence of AMC released from the synthetic peptide by enzymatic cleavage were measured.

Substance	cleavage activity of synthetic peptide (fluorescence of released AMC) [1]	cleavage activity of synthetic peptide (fluorescence of released AMC) [2]	cleavage of synthetic peptide by enzyme solution treated with trypsin beads (fluorescence of released AMC) [3]
Boc-Phe-Ser-Arg-{AMC}	showed the cleavage activity	showed the cleavage activity	cleaved
Boc-Gln-Arg-Arg-{AMC}	showed the cleavage activity	showed the cleavage activity	cleaved
Boc-Glu(OBn)-Ala-Arg-{AMC}	showed the cleavage activity	showed the cleavage activity	cleaved
